Literature values as cited in article PMC7935732 (Targeted Oncology, 2021).

Assays:
CDK 4 = settings: compared with abemaciclib; cited from earlier work
CDK 6 = settings: compared with abemaciclib; cited from earlier work

Structure (SMILES) | Inhibitory potency for CDK 4 (CDK 4) | Inhibitory potency for CDK 6 (CDK 6)
Cc1nc2c(F)cc(-c3nc(Nc4ccc(CN5CCNCC5)cn4)ncc3F)cc2n1C(C)C [M2] | comparable inhibitory potencies | comparable inhibitory potencies
CCN1CCN(Cc2ccc(Nc3ncc(F)c(-c4cc(F)c5nc(CO)n(C(C)C)c5c4)n3)nc2)CC1 [M20] | comparable inhibitory potencies | comparable inhibitory potencies
